According to ChEMBL document CHEMBL1201862, “PubChem BioAssay data set” (2004):
Activity calls are given as the source filed them.

How the values were obtained:
[1] = target: Melanin-concentrating hormone receptor 1 (Homo sapiens, UniProt Q99705); assay: Late-stage fluorescence-based counterscreen for antagonists of the G-protein coupled receptor 7 (GPR7): cell-based dose response assay to identify antagonists of the melanin-concentrating hormone receptor 1 (MCHR1) Set 6.; format: functional
[2] = target: T1, Neuropeptides B/W receptor type 1 (Homo sapiens, UniProt P48145); assay: human NPBW1 receptor blockade, IC50 – cell-based, fluorescence, dose response, set 6, late-stage follow-up (AID 588583); format: functional
T1 sequence (P48145 whole entry): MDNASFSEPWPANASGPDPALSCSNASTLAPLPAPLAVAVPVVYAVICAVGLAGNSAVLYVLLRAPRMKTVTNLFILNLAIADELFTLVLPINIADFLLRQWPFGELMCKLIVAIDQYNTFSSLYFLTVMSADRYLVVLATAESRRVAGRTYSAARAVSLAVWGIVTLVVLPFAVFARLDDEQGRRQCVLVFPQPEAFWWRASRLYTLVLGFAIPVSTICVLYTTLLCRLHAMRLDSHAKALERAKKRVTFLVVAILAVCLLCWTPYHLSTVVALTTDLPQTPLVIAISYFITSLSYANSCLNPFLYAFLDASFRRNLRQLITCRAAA

[3] = target: Adenosylmethionine-8-amino-7-oxononanoate aminotransferase (Mycobacterium tuberculosis, UniProt P9WQ81); assay: Mycobacterium tuberculosis BioA enzyme inhibitor Measured in Biochemical System Using Plate Reader - 2163-02_Inhibitor_Dose_CherryPick_Activity.; format: functional, Mycobacterium tuberculosis UT205
Sequence of Adenosylmethionine-8-amino-7-oxononanoate aminotransferase (P9WQ81 whole entry): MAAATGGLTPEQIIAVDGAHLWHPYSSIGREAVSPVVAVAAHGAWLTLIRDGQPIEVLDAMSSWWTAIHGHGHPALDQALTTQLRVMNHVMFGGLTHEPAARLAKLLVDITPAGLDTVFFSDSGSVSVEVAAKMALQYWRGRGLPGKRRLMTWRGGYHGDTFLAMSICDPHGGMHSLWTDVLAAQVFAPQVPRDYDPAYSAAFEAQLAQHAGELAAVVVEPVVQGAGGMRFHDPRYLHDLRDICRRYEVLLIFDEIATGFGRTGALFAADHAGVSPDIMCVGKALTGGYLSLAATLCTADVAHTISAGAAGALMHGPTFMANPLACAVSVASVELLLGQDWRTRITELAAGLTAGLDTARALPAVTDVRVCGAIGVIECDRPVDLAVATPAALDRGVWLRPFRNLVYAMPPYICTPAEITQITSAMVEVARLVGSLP

[4] = target: Trypsin (Sus scrofa, UniProt P00761); assay: trypsin protease activity blockade – biochemical, quenched peptide fluorescence, cherry-pick, selectivity assay for Rce1 protease inhibitor project, dose response (AID 488789)
Sequence of Trypsin (P00761 whole entry): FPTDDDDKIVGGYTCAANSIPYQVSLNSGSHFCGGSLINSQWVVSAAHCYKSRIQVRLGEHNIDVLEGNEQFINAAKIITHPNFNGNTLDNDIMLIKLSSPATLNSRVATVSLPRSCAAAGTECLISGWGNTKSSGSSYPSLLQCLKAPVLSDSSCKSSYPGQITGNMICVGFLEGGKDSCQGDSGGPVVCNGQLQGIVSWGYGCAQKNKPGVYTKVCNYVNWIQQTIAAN

[5] = target: T2, CAAX prenyl protease 2 (Saccharomyces cerevisiae S288c, UniProt Q03530); format: biochemical
T2 sequence (Q03530 whole entry): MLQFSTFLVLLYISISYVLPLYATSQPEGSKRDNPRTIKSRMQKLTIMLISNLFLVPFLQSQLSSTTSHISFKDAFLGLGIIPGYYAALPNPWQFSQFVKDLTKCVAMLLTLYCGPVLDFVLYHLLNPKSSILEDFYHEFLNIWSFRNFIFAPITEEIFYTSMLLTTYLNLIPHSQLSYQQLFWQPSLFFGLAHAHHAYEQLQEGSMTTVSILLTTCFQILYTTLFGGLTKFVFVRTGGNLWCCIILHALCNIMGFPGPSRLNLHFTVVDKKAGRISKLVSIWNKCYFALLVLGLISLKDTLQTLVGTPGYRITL

[6] = target: T3, CAAX prenyl protease 2 (Homo sapiens, UniProt Q9Y256); assay: inhibition of Ras-converting CAAX protease Rce1 – biochemical, yeast membranes, quenched-peptide fluorescence, cherry-pick, dose response (AID 588849)
T3 sequence (Q9Y256 whole entry): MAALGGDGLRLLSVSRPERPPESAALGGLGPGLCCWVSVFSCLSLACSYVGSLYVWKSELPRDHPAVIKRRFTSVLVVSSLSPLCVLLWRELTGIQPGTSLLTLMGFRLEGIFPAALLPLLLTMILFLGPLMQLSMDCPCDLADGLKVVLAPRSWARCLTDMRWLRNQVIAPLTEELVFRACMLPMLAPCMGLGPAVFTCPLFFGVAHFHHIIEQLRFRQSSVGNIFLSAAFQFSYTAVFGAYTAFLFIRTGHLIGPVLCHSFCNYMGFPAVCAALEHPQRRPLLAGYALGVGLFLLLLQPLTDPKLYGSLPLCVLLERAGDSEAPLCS

[7] = target: Beta-2 adrenergic receptor (Homo sapiens, UniProt P07550); assay: ADRB2 activation measured by internalization – cell-based, FAP fluorogen, flow cytometry, cherry pick 1, dose response (AID 588763); format: functional
Sequence of Beta-2 adrenergic receptor (P07550 whole entry): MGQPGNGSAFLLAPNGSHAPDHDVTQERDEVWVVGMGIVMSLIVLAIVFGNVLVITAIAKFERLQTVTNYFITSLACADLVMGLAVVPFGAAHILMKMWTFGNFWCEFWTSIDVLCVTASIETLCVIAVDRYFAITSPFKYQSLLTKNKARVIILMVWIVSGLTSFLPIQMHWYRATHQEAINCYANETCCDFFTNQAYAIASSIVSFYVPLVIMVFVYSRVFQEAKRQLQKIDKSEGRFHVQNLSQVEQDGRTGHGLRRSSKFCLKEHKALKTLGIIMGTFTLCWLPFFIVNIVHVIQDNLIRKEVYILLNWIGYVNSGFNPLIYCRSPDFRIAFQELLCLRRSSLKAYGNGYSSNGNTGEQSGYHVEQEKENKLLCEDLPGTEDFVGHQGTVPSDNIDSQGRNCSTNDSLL

[8] = tested on: Streptococcus sp. 'group A'; assay: Streptococcus pyogenes SK(-)GAS viability under kanamycin – luminescence, BacTiterGlo, confirmation, counter-screen for streptokinase expression inhibitor project, dose response (AID 1900); format: functional, organism-based
[9] = target: T4, Streptokinase A (Streptococcus pyogenes serotype M1, UniProt P10520); assay: viability-normalized secreted streptokinase activity reduction – plasminogen activation absorbance, OD405, dose response (AID 1914); format: functional, Streptococcus pyogenes M1 GAS;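 note: secreted streptokinase activity via plasminogen activation per viability signal from cell pellet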
T4 sequence (P10520 whole entry): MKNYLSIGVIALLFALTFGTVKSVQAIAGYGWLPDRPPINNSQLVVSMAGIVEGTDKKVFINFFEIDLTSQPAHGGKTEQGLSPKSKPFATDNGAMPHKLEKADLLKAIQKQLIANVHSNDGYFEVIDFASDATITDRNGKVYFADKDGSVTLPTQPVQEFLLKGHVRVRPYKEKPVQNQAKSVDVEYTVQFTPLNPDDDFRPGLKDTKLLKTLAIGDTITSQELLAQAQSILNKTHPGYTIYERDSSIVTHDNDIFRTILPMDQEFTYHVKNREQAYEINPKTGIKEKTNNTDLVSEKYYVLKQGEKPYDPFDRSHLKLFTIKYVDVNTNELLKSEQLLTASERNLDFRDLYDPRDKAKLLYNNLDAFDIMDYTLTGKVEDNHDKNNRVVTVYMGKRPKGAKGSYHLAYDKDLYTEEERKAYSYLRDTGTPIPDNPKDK

[10] = tested on: Streptococcus; assay: GAS UMAA2166 growth inhibition – luminescence, BacTiterGlo, counter-screen for streptokinase expression inhibitor project, dose response (AID 1915); format: functional, organism-based;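 note: potency for reduction of bacterial viability or growth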
[11] = target: DNA (cytosine-5)-methyltransferase 1 (Homo sapiens, UniProt P26358); assay: inhibition of DNA methylation by DNMT1 – biochemical, fluorescent molecular beacon, confirmation (AID 602386); format: functional
Sequence of DNA (cytosine-5)-methyltransferase 1 (P26358 whole entry): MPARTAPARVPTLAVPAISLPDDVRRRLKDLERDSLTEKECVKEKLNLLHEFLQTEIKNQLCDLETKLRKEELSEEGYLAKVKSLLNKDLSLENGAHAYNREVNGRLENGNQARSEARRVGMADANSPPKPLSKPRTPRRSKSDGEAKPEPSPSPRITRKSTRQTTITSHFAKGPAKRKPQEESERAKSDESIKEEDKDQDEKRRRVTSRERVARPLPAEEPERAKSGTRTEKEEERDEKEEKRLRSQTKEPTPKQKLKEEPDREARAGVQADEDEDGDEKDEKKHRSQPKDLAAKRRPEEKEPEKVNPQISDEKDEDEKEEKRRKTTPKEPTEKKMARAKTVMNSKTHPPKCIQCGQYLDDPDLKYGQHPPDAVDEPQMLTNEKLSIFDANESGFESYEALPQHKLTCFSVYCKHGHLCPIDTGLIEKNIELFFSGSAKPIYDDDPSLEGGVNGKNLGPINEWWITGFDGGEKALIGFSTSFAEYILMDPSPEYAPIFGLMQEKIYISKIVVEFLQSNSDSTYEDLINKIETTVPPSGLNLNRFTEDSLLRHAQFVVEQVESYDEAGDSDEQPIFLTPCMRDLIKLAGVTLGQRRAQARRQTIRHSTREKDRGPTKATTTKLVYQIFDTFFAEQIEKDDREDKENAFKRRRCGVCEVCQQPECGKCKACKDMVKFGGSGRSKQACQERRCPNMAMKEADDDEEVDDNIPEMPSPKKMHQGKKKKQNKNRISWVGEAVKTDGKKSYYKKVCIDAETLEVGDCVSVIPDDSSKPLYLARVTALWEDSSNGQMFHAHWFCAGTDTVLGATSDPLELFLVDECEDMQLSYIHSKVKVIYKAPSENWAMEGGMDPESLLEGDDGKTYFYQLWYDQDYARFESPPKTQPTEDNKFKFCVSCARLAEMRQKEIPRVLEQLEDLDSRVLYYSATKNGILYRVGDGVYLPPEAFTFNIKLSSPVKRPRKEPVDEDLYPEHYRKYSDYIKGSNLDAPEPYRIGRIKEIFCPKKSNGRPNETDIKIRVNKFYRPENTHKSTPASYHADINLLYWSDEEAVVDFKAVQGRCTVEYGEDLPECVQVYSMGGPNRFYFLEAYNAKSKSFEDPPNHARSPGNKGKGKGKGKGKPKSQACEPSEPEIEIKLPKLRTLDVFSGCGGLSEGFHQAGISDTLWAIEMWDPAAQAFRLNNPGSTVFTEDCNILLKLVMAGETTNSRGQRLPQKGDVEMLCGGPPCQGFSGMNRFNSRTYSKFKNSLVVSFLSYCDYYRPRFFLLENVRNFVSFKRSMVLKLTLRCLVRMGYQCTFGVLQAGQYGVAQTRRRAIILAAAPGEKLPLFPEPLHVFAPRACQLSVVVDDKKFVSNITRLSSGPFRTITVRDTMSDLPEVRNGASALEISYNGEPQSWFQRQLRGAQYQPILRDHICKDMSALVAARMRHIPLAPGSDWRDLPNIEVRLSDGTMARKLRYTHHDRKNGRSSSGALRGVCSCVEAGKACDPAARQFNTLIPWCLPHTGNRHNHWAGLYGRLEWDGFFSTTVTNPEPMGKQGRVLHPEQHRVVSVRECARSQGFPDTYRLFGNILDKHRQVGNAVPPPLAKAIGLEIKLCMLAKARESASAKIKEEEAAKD

[12] = mammalian cell viability loss – Alamar Blue, dry powder, cytotoxicity control for antifungal single agent project, dose response (AID 602188); format: functional, cell-based
[13] = bead-based luminescence quenchers, dual-tagged ARNT – biochemical, AlphaScreen, cherry-pick, artefact control for ARNT-TACC3 interaction inhibitor project, dose response (AID 651705); format: functional;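 note: AlphaScreen bead proximity signal that flags compounds interfering with the detection technology; potency reflects signal decrease which marks the compound as an assay artifact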
[14] = target: DNA dC->dU-editing enzyme APOBEC-3A (Homo sapiens, UniProt P31941); assay: Dose Response confirmation of small molecule APOBEC3A DNA Deaminase Inhibitors via a fluorescence-based single-stranded DNA deaminase assay. [Related pubchem assays (depositor defined):AID493011, AID493024]; format: functional
Sequence of DNA dC->dU-editing enzyme APOBEC-3A (P31941 whole entry): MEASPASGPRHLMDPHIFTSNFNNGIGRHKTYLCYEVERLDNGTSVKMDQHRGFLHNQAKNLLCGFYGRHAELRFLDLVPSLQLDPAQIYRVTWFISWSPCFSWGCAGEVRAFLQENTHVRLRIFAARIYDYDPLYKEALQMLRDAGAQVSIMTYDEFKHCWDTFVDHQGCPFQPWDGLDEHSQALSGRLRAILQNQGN

[15] = target: DNA dC->dU-editing enzyme APOBEC-3G (Homo sapiens, UniProt Q9HC16); format: functional;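 note: Dose-response counterscreen measuring inhibition of APOBEC3G DNA deaminase activity, run while confirming APOBEC3A inhibitors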
Sequence of DNA dC->dU-editing enzyme APOBEC-3G (Q9HC16 whole entry): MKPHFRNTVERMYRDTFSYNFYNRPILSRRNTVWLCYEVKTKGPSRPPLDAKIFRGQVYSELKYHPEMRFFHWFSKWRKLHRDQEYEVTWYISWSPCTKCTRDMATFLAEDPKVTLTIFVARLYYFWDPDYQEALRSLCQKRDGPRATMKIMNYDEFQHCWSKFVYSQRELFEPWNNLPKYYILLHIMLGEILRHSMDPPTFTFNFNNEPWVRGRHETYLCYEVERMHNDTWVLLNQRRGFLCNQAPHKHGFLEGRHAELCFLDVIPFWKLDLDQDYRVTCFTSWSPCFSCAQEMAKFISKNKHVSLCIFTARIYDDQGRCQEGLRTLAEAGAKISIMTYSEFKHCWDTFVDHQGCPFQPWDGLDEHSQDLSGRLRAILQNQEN

[16] = target: T5, Caspase-3 (Homo sapiens, UniProt P42574); format: functional;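 note: Dose-response selectivity test against caspase-3 for candidate inhibitors of sentrin-specific proteases (SENPs)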
T5 sequence (P42574 whole entry): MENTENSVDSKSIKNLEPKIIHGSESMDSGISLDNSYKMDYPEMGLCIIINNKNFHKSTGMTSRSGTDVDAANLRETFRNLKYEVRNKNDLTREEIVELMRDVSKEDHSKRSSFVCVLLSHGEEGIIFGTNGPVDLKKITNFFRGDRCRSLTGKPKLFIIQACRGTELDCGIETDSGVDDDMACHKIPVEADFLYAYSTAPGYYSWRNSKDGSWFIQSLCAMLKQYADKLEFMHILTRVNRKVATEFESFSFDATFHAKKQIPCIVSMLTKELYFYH

[17] = target: T6, Sentrin-specific protease 7 (Homo sapiens, UniProt Q9BQF6); format: functional;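 note: Luminescence-based dose-response confirmation of ultra-high-throughput screening hits, measuring inhibition of SENP7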
T6 sequence (Q9BQF6 whole entry): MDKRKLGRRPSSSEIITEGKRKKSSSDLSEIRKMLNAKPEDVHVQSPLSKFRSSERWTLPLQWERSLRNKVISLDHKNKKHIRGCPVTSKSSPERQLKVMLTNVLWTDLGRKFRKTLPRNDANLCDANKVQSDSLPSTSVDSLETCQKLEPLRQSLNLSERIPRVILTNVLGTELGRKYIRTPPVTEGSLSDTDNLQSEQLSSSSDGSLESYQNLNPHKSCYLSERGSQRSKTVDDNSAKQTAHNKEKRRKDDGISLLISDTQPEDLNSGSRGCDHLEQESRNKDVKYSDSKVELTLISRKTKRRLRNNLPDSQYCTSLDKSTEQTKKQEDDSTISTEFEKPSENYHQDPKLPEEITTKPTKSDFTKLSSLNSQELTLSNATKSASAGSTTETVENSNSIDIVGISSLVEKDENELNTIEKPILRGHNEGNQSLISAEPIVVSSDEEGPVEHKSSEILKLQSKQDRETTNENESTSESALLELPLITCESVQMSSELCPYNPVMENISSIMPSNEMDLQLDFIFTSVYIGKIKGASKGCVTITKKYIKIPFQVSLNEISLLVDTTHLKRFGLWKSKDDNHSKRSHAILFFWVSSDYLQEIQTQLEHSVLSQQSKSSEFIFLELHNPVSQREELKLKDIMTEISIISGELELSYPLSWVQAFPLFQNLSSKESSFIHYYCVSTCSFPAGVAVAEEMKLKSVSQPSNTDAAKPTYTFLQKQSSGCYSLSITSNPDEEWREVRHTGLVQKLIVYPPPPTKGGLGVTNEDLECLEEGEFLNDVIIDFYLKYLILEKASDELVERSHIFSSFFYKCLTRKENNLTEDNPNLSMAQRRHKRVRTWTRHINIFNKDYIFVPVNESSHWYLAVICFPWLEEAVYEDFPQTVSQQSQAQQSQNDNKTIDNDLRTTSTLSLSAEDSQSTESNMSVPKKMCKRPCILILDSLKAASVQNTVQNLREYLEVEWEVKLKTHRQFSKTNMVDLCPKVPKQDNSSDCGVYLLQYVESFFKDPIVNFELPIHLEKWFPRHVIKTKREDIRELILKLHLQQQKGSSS

[18] = target: T7, Sentrin-specific protease 6 (Homo sapiens, UniProt Q9GZR1); format: functional;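 note: Luminescence-based dose-response confirmatory assay of SENP6 inhibition, following up an ultra-high-throughput screen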
T7 sequence (Q9GZR1 whole entry): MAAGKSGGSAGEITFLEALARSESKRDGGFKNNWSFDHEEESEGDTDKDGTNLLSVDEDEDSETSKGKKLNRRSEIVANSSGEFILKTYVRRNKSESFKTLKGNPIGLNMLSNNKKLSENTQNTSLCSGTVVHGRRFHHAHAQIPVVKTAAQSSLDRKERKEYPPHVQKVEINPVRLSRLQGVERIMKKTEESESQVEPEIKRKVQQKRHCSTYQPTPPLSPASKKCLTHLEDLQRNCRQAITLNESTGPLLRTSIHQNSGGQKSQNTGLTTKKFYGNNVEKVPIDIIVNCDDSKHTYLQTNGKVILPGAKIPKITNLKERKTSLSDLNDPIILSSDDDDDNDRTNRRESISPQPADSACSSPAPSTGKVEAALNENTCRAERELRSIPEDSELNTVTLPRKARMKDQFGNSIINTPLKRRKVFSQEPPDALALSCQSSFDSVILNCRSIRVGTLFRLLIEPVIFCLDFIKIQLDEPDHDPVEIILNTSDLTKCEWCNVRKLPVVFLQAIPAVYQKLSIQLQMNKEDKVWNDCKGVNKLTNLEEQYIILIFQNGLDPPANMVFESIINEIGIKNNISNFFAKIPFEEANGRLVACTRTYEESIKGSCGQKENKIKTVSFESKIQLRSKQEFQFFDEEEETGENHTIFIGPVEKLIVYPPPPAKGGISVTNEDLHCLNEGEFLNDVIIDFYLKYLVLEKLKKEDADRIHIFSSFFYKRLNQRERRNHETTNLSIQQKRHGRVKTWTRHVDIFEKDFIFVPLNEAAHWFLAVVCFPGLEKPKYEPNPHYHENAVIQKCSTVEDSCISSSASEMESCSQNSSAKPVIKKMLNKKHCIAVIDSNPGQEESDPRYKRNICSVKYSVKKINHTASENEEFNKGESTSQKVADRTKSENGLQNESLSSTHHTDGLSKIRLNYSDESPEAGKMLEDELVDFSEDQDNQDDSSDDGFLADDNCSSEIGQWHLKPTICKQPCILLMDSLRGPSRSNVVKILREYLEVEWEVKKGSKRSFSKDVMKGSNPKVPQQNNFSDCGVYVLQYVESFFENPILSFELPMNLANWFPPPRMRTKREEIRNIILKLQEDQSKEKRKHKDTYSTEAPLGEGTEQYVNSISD

[19] = target: T8, Sentrin-specific protease 8 (Homo sapiens, UniProt Q96LD8); format: functional;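 note: luminescence read-out of SENP8 inhibition, dose-response confirmation following an ultra-high-throughput screen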
T8 sequence (Q96LD8 whole entry): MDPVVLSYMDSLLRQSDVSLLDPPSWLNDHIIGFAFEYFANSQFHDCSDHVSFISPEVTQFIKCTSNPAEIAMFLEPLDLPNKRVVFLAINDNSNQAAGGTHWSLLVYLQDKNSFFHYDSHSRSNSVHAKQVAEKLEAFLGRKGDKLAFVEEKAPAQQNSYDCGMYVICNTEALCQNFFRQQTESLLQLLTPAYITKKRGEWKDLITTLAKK

[20] = target: Mitochondrial peptide methionine sulfoxide reductase (Bos taurus, UniProt P54149); assay: Absorbance-based biochemical high throughput dose response assay for activators of Methionine sulfoxide reductase A (MsrA).; format: functional
Sequence of Mitochondrial peptide methionine sulfoxide reductase (P54149 whole entry): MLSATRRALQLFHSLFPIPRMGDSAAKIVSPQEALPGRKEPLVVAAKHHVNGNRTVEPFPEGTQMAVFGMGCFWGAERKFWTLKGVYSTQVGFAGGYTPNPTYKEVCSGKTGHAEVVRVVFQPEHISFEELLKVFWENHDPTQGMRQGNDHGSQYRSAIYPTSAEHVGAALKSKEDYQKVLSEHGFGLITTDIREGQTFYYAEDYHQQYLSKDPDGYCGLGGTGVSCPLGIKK

Sequence of Melanin-concentrating hormone receptor 1 (Q99705 whole entry): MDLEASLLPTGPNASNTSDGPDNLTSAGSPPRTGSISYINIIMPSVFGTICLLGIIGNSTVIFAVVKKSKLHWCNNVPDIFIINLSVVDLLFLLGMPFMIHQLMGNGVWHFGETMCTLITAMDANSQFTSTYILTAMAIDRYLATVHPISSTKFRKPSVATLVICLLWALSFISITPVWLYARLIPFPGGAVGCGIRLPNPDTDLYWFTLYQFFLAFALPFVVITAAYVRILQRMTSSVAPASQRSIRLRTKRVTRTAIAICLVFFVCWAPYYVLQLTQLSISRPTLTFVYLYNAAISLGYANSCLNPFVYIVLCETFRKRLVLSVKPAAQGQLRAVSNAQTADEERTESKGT

Cc1ccc(C(C#N)c2c(Br)cnn(Cc3cccc4ccccc34)c2=O)cc1 (stereo unspecified)
IC50 [1]: 0.219 µM (active) | IC50 [2]: 0.219 µM (active)

CCOc1ccc(C(=O)Nc2cc3c(cc2N2CCCC2)n(CC)c(=O)n3CC)cc1OCC
AC50 [3]: 6.03 µM (active)

CC(C)OC(=O)c1c(N)n(CCCN2CCOCC2)c2nc3ccccc3nc12
AC50 [4]: 6.98 µM (active) | AC50 [5]: 11.9 µM (active) | AC50 [6]: 4.27 µM (active)

COC(=O)c1cc([N+](=O)[O-])c(-n2cncn2)c([N+](=O)[O-])c1
EC50 [7]: 19 µM (inactive)

O=C(O)C(c1ccccc1)N1C(=O)/C(=C\c2ccc(-c3ccc(Br)cc3)o2)SC1=S (stereo unspecified)
EC50 [8]: 1.81 µM (active) | EC50 [9]: 1.55 µM (active) | EC50 [10]: 2.51 µM (active) | IC50 [11]: 4.08 µM (active)

Cc1ccc(C(=O)Nc2nc(-c3ccccn3)cs2)cc1
AC50 [12]: 9.7 µM (active)

Oc1c(/C=N/CCCn2ccnc2)c(-c2ccccc2)nn1-c1nc2ccccc2s1
AC50 [13]: 99.5 µM (active)

CCn1c(SCC(=O)N2CCCC2)nnc1-c1ccc(N)cc1
IC50 [14]: 2.31 µM (active) | IC50 [15]: 2.75 µM (active) | EC50 [7]: 2.07 µM (active)

O=C(COC(=O)c1ccc([N+](=O)[O-])s1)NCc1ccc(F)cc1
IC50 [16]: 9.32 µM (active) | IC50 [17]: 6.18 µM (active) | IC50 [18]: 3.68 µM (active) | IC50 [19]: 3.72 µM (active) | EC50 [20]: 27.2 µM (inactive)

NC(=O)N1N=C2/C(=C/c3ccccc3)CCCC2C1c1ccccc1 (stereo unspecified)
AC50 [4]: 10.8 µM (active) | AC50 [5]: 9.14 µM (active) | AC50 [6]: 12.1 µM (active)

COc1ccc(C(C#N)c2c(Br)cnn(Cc3cccc4ccccc34)c2=O)cc1 (stereo unspecified)
IC50 [1]: 0.131 µM (active) | IC50 [2]: 0.131 µM (active)
